Source: ChEMBL document CHEMBL1201862, “PubChem BioAssay data set” (2004)
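Where inhibition never reached the appropriate level, the endpoint shown equals the highest concentration tested. Otherwise, values were interpolated linearly from a five-concentration, 48-hour dose response in 96-well plates. Abbreviation: GI50, concentration required for 50% inhibition of growth.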 Calls of active or inactive are those of the source. Cut-off read from the data, not from the text of the source: active = GI50 up to about 1.1 µM and inactive = higher.

Columns and labels:
Test in all cases: NCI anticancer screen, dose series, 48 h
A549 = system: A549
SNB-75 = system: SNB-75
UACC-62 = system: UACC-62
HCT-116 = system: HCT-116
DMS-114 = system: DMS-114
A498 = system: A498
DMS-273 = system: DMS-273
SN12C = system: SN12C
LOX IMVI = system: LOX IMVI
SNB-19 = system: SNB-19
HCT-15 = system: HCT-15
HL-60 = system: HL-60
SF-295 = system: SF-295
NCI-H522 = system: NCI-H522
OVCAR-4 = system: OVCAR-4
PC-3 = system: PC-3
T47D = system: T47D
BT-549 = system: BT-549

SMILES	GI50 (A549)	GI50 (SNB-75)	GI50 (UACC-62)	GI50 (HCT-116)	GI50 (DMS-114)	GI50 (A498)	GI50 (DMS-273)	GI50 (SN12C)	GI50 (LOX IMVI)	GI50 (SNB-19)	GI50 (HCT-15) [µM]	GI50 (HL-60)	GI50 (SF-295)	GI50 (NCI-H522)	GI50 (OVCAR-4)	GI50 (PC-3)	GI50 (T47D)	GI50 (BT-549)
C/C(CC(=O)Nc1ccc([N+](=O)[O-])cc1)=N\NC(N)=O	> 100 µM (inactive)	> 100 µM (inactive)	> 71.3 µM (inactive)	> 57.8 µM (inactive)	> 45.8 µM (inactive)	> 100 µM (inactive)	> 66.5 µM (inactive)	> 100 µM (inactive)	> 64.7 µM (inactive)	> 100 µM (inactive)	27	> 100 µM (inactive)	> 100 µM (inactive)	> 81.7 µM (inactive)	> 100 µM (inactive)	–	–	–
CCOC(=O)Cc1csc(Nc2ccccc2[N+](=O)[O-])n1	> 100 µM (inactive)	> 100 µM (inactive)	> 100 µM (inactive)	> 76.4 µM (inactive)	> 100 µM (inactive)	> 100 µM (inactive)	99.1 µM (inactive)	> 100 µM (inactive)	> 46.7 µM (inactive)	> 100 µM (inactive)	> 56.6	> 100 µM (inactive)	> 100 µM (inactive)	> 100 µM (inactive)	> 100 µM (inactive)	–	–	–
Cc1c(C2Cc3ccccc3N2)c2ccccc2n1C (stereo not drawn)	> 100 µM (inactive)	> 100 µM (inactive)	> 100 µM (inactive)	> 100 µM (inactive)	> 100 µM (inactive)	> 100 µM (inactive)	> 100 µM (inactive)	> 100 µM (inactive)	> 100 µM (inactive)	> 100 µM (inactive)	36.3	> 100 µM (inactive)	> 100 µM (inactive)	> 100 µM (inactive)	> 100 µM (inactive)	–	–	–
COC(=O)C1C(C(=O)OC)C2(OC)c3ccccc3-c3ccccc3C12 (stereo not drawn)	36.4 µM (inactive)	38.4 µM (inactive)	26.1 µM (inactive)	35.4 µM (inactive)	20.6 µM (inactive)	44 µM (inactive)	16.7 µM (inactive)	32 µM (inactive)	25.6 µM (inactive)	60 µM (inactive)	28.4	1.97 µM (inactive)	38.2 µM (inactive)	20.3 µM (inactive)	48.2 µM (inactive)	–	–	–
Cc1ccc2c(c1)SC(c1cc3c(cc1Br)OCO3)S2 (stereo not drawn)	> 31.6 µM (inactive)	0.516 µM (active)	> 31.6 µM (inactive)	23.9 µM (inactive)	15.8 µM (inactive)	> 31.6 µM (inactive)	20 µM (inactive)	> 31.6 µM (inactive)	> 31.6 µM (inactive)	> 100 µM (inactive)	25.4	22.6 µM (inactive)	> 31.6 µM (inactive)	24.7 µM (inactive)	> 31.6 µM (inactive)	–	–	–
COc1ccc2c[n+](C)c3c4cc(OC)c(OC)cc4ccc3c2c1	0.53 µM (active)	2.47 µM (inactive)	18.5 µM (inactive)	4.37 µM (inactive)	1.05 µM (active)	45.8 µM (inactive)	2.28 µM (inactive)	2.02 µM (inactive)	4.72 µM (inactive)	2.52 µM (inactive)	> 41.9	8.07 µM (inactive)	5.13 µM (inactive)	2.03 µM (inactive)	8.09 µM (inactive)	0.849 µM (active)	2.73 µM (inactive)	2.85 µM (inactive)
NC(CCCCNCc1ccccc1O)C(=O)O (stereo not drawn)	> 100 µM (inactive)	93.5 µM (inactive)	> 100 µM (inactive)	> 100 µM (inactive)	> 100 µM (inactive)	> 100 µM (inactive)	> 100 µM (inactive)	> 100 µM (inactive)	> 100 µM (inactive)	> 100 µM (inactive)	> 100	> 100 µM (inactive)	> 100 µM (inactive)	> 100 µM (inactive)	> 100 µM (inactive)	–	–	–
COC(=O)[C@@H]1C(=O)O[C@@H](c2cc(OC)c(OC)cc2OC)[C@@H]1C(=O)OC.COC(=O)[C@H]1C(=O)O[C@@H](c2cc(OC)c(OC)cc2OC)[C@@H]1C(=O)OC	> 100 µM (inactive)	> 100 µM (inactive)	> 100 µM (inactive)	> 100 µM (inactive)	> 100 µM (inactive)	> 100 µM (inactive)	> 100 µM (inactive)	> 100 µM (inactive)	> 100 µM (inactive)	> 100 µM (inactive)	> 100	> 100 µM (inactive)	> 100 µM (inactive)	> 100 µM (inactive)	> 100 µM (inactive)	–	–	–
